# According to patent US20020091095A1, “Modulation of Fas and FasL expression” (priority 1999, published 2002):
# Assays:
# Fas [1] = test: Fas expression at the cell surface by flow cytometry, Jurkat cells; type: cell-based; conditions: Jurkat human leukemia T cells, 100 μg/ml sequence, 48 h, treated vs control cells
# Method: (§1) Cancer cells and PBMCs were seeded in 6 well flat-bottom microplates and were maintained at 37° C. in a 5% CO2 atmosphere. Unless stated otherwise, 2×10^5 cells/ml were incubated for 48 h with 0 μg/ml (control) or 100 μg/ml ([…]) (treated) of the sequences.
# (§2) Fas and FasL expression were measured by flow cytometry using anti-Fas FITC-conjugated monoclonal antibodies and anti-FasL PE-conjugated monoclonal antibodies in a FACScalibur Flow Cytometer (Becton Dickinson, San Jose, Calif., USA) using the CELLQuest program (Becton Dickinson).
# (§3) Results are expressed as percentage (%) increase in the expression of Fas and of FasL measured on treated cells compared to control cells.
# (§4) Jurkat human leukemia T cells are an atypical multi-drug resistant human suspension tumor cell model.
# FasL [2] = test: FasL expression at the cell surface by flow cytometry, Jurkat cells; type: cell-based; conditions: Jurkat human leukemia T cells, 100 μg/ml sequence, 48 h, treated vs control cells
# Method: as §1, §2, §3, §4
# Fas [3] = test: Fas expression at the cell surface by flow cytometry, PBMCs; type: cell-based, human; conditions: 100 μg/ml sequence, 48 h, treated vs control cells
# Method: (§5) Peripheral blood mononuclear cells (hereinafter, “PBMCs”) were isolated from human blood by Ficoll-Hypaque (Amersham Pharmacia Biotech, Baie d'Urfée, Québec, Canada) density gradient centrifugation.
# as §1, §2, §3
# FasL [4] = test: FasL expression at the cell surface by flow cytometry, PBMCs; type: cell-based, human; conditions: 100 μg/ml sequence, 48 h, treated vs control cells
# Method: as §5, §1, §2, §3
# Fas [5] = test: Fas expression at the cell surface by flow cytometry, T-24 cells; type: cell-based, human; conditions: T-24 bladder cancer cells, 100 μg/ml sequence, 48 h, treated vs control cells
# Method: as §1, §2, §3
# (§6) T-24 bladder cancer cells are a p53 mutated human cell line T-24 cells (1.0×10^5 cells/ml) were incubated with the 6 base sequences shown in Table 4.
# FasL [6] = test: FasL expression at the cell surface by flow cytometry, T-24 cells; type: cell-based, human; conditions: T-24 bladder cancer cells, 100 μg/ml sequence, 48 h, treated vs control cells
# Method: as §1, §2, §3, §6
# Fas [7] = test: Fas expression at the cell surface by flow cytometry, UMUC-3 cells; type: cell-based, human; conditions: UMUC-3 bladder cancer cells, 100 μg/ml sequence, 48 h, treated vs control cells
# Method: as §1, §2, §3
# (§7) UMUC-3 bladder cancer cells are a P-glycoprotein overexpressing human cell line.
# FasL [8] = test: FasL expression at the cell surface by flow cytometry, UMUC-3 cells; type: cell-based, human; conditions: UMUC-3 bladder cancer cells, 100 μg/ml sequence, 48 h, treated vs control cells
# Method: as §1, §2, §3, §7
# Fas [9] = test: Fas expression at the cell surface by flow cytometry, OVCAR-3 cells; type: cell-based, human; conditions: OVCAR-3 ovarian cancer cells, 100 μg/ml sequence, 48 h, treated vs control cells
# Method: as §1, §2, §3
# OVCAR-3 ovarian cancer cells are a p53 mutated, p21/waf-1/Cip deleted, metastatic human solid tumor model.
# FasL [10] = test: FasL expression at the cell surface by flow cytometry, SK-OV-3 cells; type: cell-based, human; conditions: SK-OV-3 ovarian cancer cells, 100 μg/ml sequence, 48 h, treated vs control cells
# Method: as §1, §2, §3
# SK-OV-3 ovarian cancer cells are a p53 mutated, p21/waf-1/Cip deleted, p15^ink4B,p16^ink4 deleted metastatic human solid tumor model.
# Fas [11] = test: Fas expression at the cell surface by flow cytometry, LNCaP cells; type: cell-based, human; conditions: LNCaP prostate cancer cells, 100 μg/ml sequence, 48 h, treated vs control cells
# Method: as §1, §2, §3
# (§8) LNCaP prostate cancer cells are a TGF-beta 1 receptor negative, […], metastatic human solid tumor model.
# FasL [12] = test: FasL expression at the cell surface by flow cytometry, LNCaP cells; type: cell-based, human; conditions: LNCaP prostate cancer cells, 100 μg/ml sequence, 48 h, treated vs control cells
# Method: as §1, §2, §3, §8
# Fas [13] = test: Fas expression at the cell surface by flow cytometry, MCF-7 cells; type: cell-based, human; conditions: MCF-7 breast cancer cells, 100 μg/ml sequence, 48 h, treated vs control cells
# Method: as §1, §2, §3
# (§9) MCF-7 human breast cancer cells are a caspase-3 negative, estrogen-dependent human solid tumor model.
# FasL [14] = test: FasL expression at the cell surface by flow cytometry, MCF-7 cells; type: cell-based, human; conditions: MCF-7 breast cancer cells, 100 μg/ml sequence, 48 h, treated vs control cells
# Method: as §1, §2, §3, §9
# Fas [15] = test: Inhibition of Fas expression on Jurkat cells by cycloheximide; type: cell-based, human; conditions: for % INCREASE of Fas: Jurkat cells
# Method: as §2, §3
# Jurkat human leukemia T cells were pre-incubated with 0.0 μg/ml (−CHX) or with 0.1 μg/ml of cycloheximide (+CHX) for 1 h. Ten μg/ml or 100 μg/ml of 6 base SEQ ID NO:5 (GGGTGG) was added to both the −CHX and +CHX cells and the incubation was continued for 24 hours and for 48 hours (Table 10).
# Jurkat T leukemia cells = test: Inhibition of Jurkat leukemia T cell proliferation (MTT reduction); type: cell-based, human; conditions: for % INHIBITION of cell proliferation: Jurkat, 48 h
# Method: UMUC-3 bladder cancer cells were incubated for 48 hours with 0.00, 0.02 and 0.20 μg/ml of agonistic anti-Fas monoclonal antibodies (clone CH-11: Coulter-Immunotech, Marseille, France) +0 or 10 μg/ml of SEQ ID NO:5. Cell proliferation was measured using dimethylthiazol-diphenyltetrazolium (MTT) reduction (Mosman et al. J. Immunol. Methods 65:55, 1983). MTT was measured at a wavelength of 570 nm using a multiplate spectrophotometer reader (ELX800, Bio-TEK Instruments Inc., Winooski, Vt.).
# Jurkat T leukemia cells were incubated for 48 hours with 0.00, 0.02 and 0.20 μg/ml of agonistic anti-Fas monoclonal antibodies (clone CH-11) +0 and 10 μg/ml of SEQ ID NO:5. Cell proliferation was measured as in Example 13.
sequence,measurement,setting,value
GGGTGG [SEQ ID NO:5],% INCREASE Fas,Fas [1],150%
same,% INCREASE FasL,FasL [2],145%
same,% INCREASE Fas,Fas [3],3%
same,% INCREASE FasL,FasL [4],−20%
same,% INCREASE Fas,Fas [5],80%
same,% INCREASE FasL,FasL [6],13%
same,% INCREASE Fas,Fas [7],67%
same,% INCREASE FasL,FasL [8],143%
same,% INCREASE Fas,Fas [9],43%
same,% INCREASE FasL,FasL [10],−31%
same,% INCREASE Fas,Fas [11],15%
same,% INCREASE FasL,FasL [12],−1%
same,% INCREASE Fas,Fas [13],93%
same,% INCREASE FasL,FasL [14],81%
same,Fas expression,"Fas [15]; Jurkat T cells, 10 or 100 μg/ml, 24 h and 48 h",upregulated Fas expression
same,% INCREASE of Fas,"Fas [15]; 10 μg/ml sequence, 24 h, +CHX (0.1 μg/ml cycloheximide)",5%
same,% INCREASE of Fas,"Fas [15]; 10 μg/ml sequence, 24 h, −CHX",63%
same,% INCREASE of Fas,"Fas [15]; 10 μg/ml sequence, 48 h, +CHX (0.1 μg/ml cycloheximide)",51%
same,% INCREASE of Fas,"Fas [15]; 10 μg/ml sequence, 48 h, −CHX",91%
same,% INCREASE of Fas,"Fas [15]; 100 μg/ml sequence, 24 h, +CHX (0.1 μg/ml cycloheximide)",22%
same,% INCREASE of Fas,"Fas [15]; 100 μg/ml sequence, 24 h, −CHX",62%
same,% INCREASE of Fas,"Fas [15]; 100 μg/ml sequence, 48 h, +CHX (0.1 μg/ml cycloheximide)",115%
same,% INCREASE of Fas,"Fas [15]; 100 μg/ml sequence, 48 h, −CHX",150%
same,combined effect with agonistic anti-Fas antibodies on cell proliferation,"Jurkat T leukemia cells; Jurkat T cells, 0.02 and 0.2 μg/ml anti-Fas antibodies, 10 μg/ml sequence",additive
same,% INHIBITION of cell proliferation,Jurkat T leukemia cells; 10 μg/ml sequence + anti-Fas antibodies 0.02 μg/ml,28%
same,% INHIBITION of cell proliferation,Jurkat T leukemia cells; 10 μg/ml sequence + anti-Fas antibodies 0.2 μg/ml,48%
same,% INHIBITION of cell proliferation,"Jurkat T leukemia cells; 10 μg/ml sequence, anti-Fas antibodies 0.0 μg/ml",16%
